These results are taken from ChEMBL document CHEMBL1201862, “PubChem BioAssay data set” (2004).

What all share (test): DTP human tumour cell line panel, 48 h
The test system of assay [1] is HCT-116.
Assay [2] deals with BT-549.
The test system of assay [3] is HT-29.
The test system of assay [4] is K562.
The test system of assay [5] is MDA-MB-231.
Assay [6] concerns CAKI-1.
Assay [7] deals with SW-620.
Assay [8] concerns NCI-H23.
In assay [9] the test system is HCC 2998.
Assay [10] deals with SF-295.
Assay [11] deals with RXF 393.
Assay [12] deals with DU-145.
Assay [13] deals with SK-MEL-5.
The test system of assay [14] is PC-3.
Assay [15] deals with M14.
The test system of assay [16] is SF-539.
Assay [17] deals with HL-60.
The test system of assay [18] is A498.
Assay [19] concerns MDA-N.

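Grown in 96-well plates, cells were treated for 48 hours with each compound at five concentrations. Insufficient inhibition: endpoint recorded as highest concentration tested. The concentration for 50% growth inhibition is given as GI50.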 The source made the active and inactive calls. Cut-off read from the data, not from the text of the source: active = GI50 up to about 1.1 µM and inactive = higher.

With `c1csc(-c2cscc2-c2cccs2)c1`, the GI50 (in general, the concentration giving 50% growth inhibition) in assay [1] is 29.8 µM (inactive); in [2] it was 63.4 µM (inactive); in assay [3], 91.4 µM (inactive); in assay [4], 37.3 µM (inactive); in [5] it was > 100 µM (inactive); in assay [6] it was > 100 µM (inactive). Also, the GI50 is 48.3 µM (inactive) in [7]; 28.2 µM (inactive) in assay [8]; 22.9 µM (inactive) in [9]; 32.9 µM (inactive) in [10]; 27.6 µM (inactive) in assay [11]; 1.31 µM (inactive) in assay [12]. In addition, the GI50 in assay [13] was 46.8 µM (inactive); in assay [14] it was 5.38 µM (inactive); in assay [15], 27.7 µM (inactive); in assay [16], 20.3 µM (inactive); in assay [17] it was 30.3 µM (inactive); in assay [18], > 100 µM (inactive).
Consider `CC(=O)OC1=C(CC(C)(C)C)C(=O)c2ccccc2C1=O`, for which the GI50 in assay [1] is 25.8 µM (inactive); in assay [3], 33.7 µM (inactive); in assay [4], 18.5 µM (inactive); in [5], 87.7 µM (inactive); in assay [6], 48.4 µM (inactive); in assay [7], 33 µM (inactive). In addition, the GI50 in assay [8] is 15.6 µM (inactive); in assay [9], 40.2 µM (inactive); in assay [10] it was 22.7 µM (inactive); in assay [11], 28.3 µM (inactive); in [12], 46.7 µM (inactive); in assay [13], 15.9 µM (inactive). The GI50 was 29.1 µM (inactive) in assay [14]; 30.4 µM (inactive) in assay [15]; 26.5 µM (inactive) in assay [16]; 16 µM (inactive) in assay [17]; 13.5 µM (inactive) in assay [18].
Take `CCOC(=O)c1c(-c2ccc(Cl)cc2)c(C#N)c(=S)n(C2OC(COC(C)=O)C(OC(C)=O)C(OC(C)=O)C2OC(C)=O)c1C` (stereo not given): the GI50 in assay [1], in assay [3], in assay [4], in assay [5], in assay [6] and in [7] was > 100 µM (inactive) in each case. In addition, the GI50 in assay [8], in [9], in assay [10], in [11], in assay [12] and in assay [13] was > 100 µM (inactive) each time. Moreover, the GI50 in assay [19] is > 100 µM (inactive); in assay [14], 0.759 µM (active); in assay [15], > 100 µM (inactive); in [16] it was > 100 µM (inactive); in assay [17], > 100 µM (inactive); in assay [18] it was 74 µM (inactive).
`Cc1nc2nn[nH]n2c(=O)c1CCO`: the GI50 in assay [1], in [3], in assay [4], in assay [5], in [6] and in assay [7] was > 100 µM (inactive) in each case. Further, the GI50 in [8], in assay [9], in assay [10], in [11], in assay [12] and in assay [13] was > 100 µM (inactive) in each case. Moreover, the GI50 in assay [19], in assay [14], in assay [15], in assay [16], in [17] and in [18] was > 100 µM (inactive) throughout.
Regarding `COc1ccc2nc3ccc(OC)cc3c([S+]([O-])Cc3ccccc3)c2c1` (stereo not given), the GI50 in [1] was 2.45 µM (inactive); in assay [2], 14.3 µM (inactive); in assay [3], 3.05 µM (inactive); in assay [4], 8.51 µM (inactive); in [5], 16 µM (inactive); in assay [6], 12.8 µM (inactive). The GI50 was 3.89 µM (inactive) in assay [7]; 8.81 µM (inactive) in [8]; 19.4 µM (inactive) in [9]; 17.8 µM (inactive) in assay [10]; 13.6 µM (inactive) in assay [11]; 2.07 µM (inactive) in assay [12]. In addition, the GI50 in assay [13] is 16.8 µM (inactive); in assay [14], 14.2 µM (inactive); in assay [15], 14.4 µM (inactive); in assay [16] it was 7.73 µM (inactive); in assay [17] it was 3.84 µM (inactive); in assay [18], 17 µM (inactive).
As for `CCOC(=O)C1C(c2ccc3c(c2)OCO3)c2c(n[nH]c2O)CC1(O)OCC` (stereo not given), the GI50 in assay [1], in assay [3], in assay [5], in assay [6], in assay [7] and in assay [8] was > 100 µM (inactive) throughout. Also, the GI50 in [9], in [10], in [12], in assay [13], in assay [14] and in assay [15] was > 100 µM (inactive) in each case. Besides, the GI50 in [16], in assay [17] and in [18] was > 100 µM (inactive) throughout.
In the case of `CC(=O)Nc1c(C(=N)C#N)ncn1CCO`, the GI50 in [1], in assay [3], in assay [4], in [5], in assay [6] and in [7] was > 100 µM (inactive) in each case. The GI50 in assay [8], in assay [9], in [10], in assay [11], in assay [12] and in assay [13] was > 100 µM (inactive) in each case. For the same compound, the GI50 in assay [19], in assay [14], in assay [15], in [16] and in [18] was > 100 µM (inactive) throughout.
Consider `NC(=S)N/N=C/C(=C/Nc1ccccc1)[N+](=O)[O-]`, for which the GI50 in [1], in [3], in assay [4], in [6], in assay [7] and in [8] was > 100 µM (inactive) in each case. For the same compound, the GI50 in assay [10], in assay [11], in [15], in assay [16] and in [17] was > 100 µM (inactive) each time.
For the compound `O=C(CC(O)(C(F)(F)F)C(F)(F)Cl)CC(O)(C(F)(F)F)C(F)(F)Cl` (stereo not given), the GI50 in assay [1] is 1.67 µM (inactive); in [3] it was 2.33 µM (inactive); in [4] it was 2.76 µM (inactive); in [5], 2.05 µM (inactive); in assay [6], 2.74 µM (inactive); in assay [7] it was 3.86 µM (inactive). Further, the GI50 was 1.25 µM (inactive) in [8]; 3.04 µM (inactive) in [9]; 2.4 µM (inactive) in assay [10]; 2.23 µM (inactive) in assay [11]; 1.17 µM (inactive) in [12]; 1.72 µM (inactive) in [13]. For the same compound, the GI50 in assay [19] was 3.21 µM (inactive); in assay [14], 1.64 µM (inactive); in assay [15] it was 3.65 µM (inactive); in assay [16] it was 1.34 µM (inactive); in assay [17], 2.99 µM (inactive); in assay [18], 2.29 µM (inactive).
`S=C(Nc1ccc(Cl)cc1)c1ccc(CN2CCCCC2)s1`: the GI50 was 1.8 µM (inactive) in assay [1]; 8.26 µM (inactive) in assay [2]; 3.5 µM (inactive) in [3]; 2.09 µM (inactive) in assay [4]; 12.2 µM (inactive) in assay [6]; 4.4 µM (inactive) in assay [7]. In addition, the GI50 in assay [8] was 3.35 µM (inactive); in assay [9], 7.16 µM (inactive); in assay [12] it was 19.8 µM (inactive); in assay [13], 3.08 µM (inactive); in assay [19], 2.94 µM (inactive); in assay [14], 18.5 µM (inactive). In addition, the GI50 in [15] was 4.09 µM (inactive); in assay [16], 24.9 µM (inactive); in assay [17], 1.81 µM (inactive); in assay [18], 10.8 µM (inactive).
Regarding `O[C@H]1[C@H](O)[C@H](O)CN2CCC[C@@H](O)[C@H]12`, the GI50 in [1], in assay [2], in [3], in assay [4], in assay [5] and in assay [6] was > 100 µM (inactive) in each case. Besides, the GI50 in assay [7], in assay [8], in [9], in assay [10], in assay [11] and in assay [12] was > 100 µM (inactive) in each case. For the same compound, the GI50 in assay [13], in assay [14], in [15], in [16], in assay [17] and in [18] was > 100 µM (inactive) each time.
For `O=C(Nc1cc(Cl)cc(Cl)c1)/C(Cc1nc2ccccc2nc1O)=N/NC(=O)c1ccncc1`, the GI50 in assay [1], in assay [4], in assay [6], in [7], in assay [9] and in assay [10] was > 100 µM (inactive) throughout. For the same compound, the GI50 in [13], in [15], in assay [16], in assay [17] and in assay [18] was > 100 µM (inactive) throughout.
